One assay deals with Coniophora puteana. Put plainly: Activity against wood-rotting fungi, weight loss of impregnated wood blocks. As to conditions: eight weeks at 22° C. and 70% relative humidity. Here is the method:
(§1) Sapwood blocks (50×20×6 mm) of Scots pine (Pinus sylvestris) and beech (Fagus sylvatica) were oven-dried at 104° C. The blocks were cooled, weighed, and impregnated with the test compound, by a vacuum treatment. Each concentration of the test compounds was applied to 7 replicates. By reweighing after each treatment, the uptake of active ingredient was calculated. Badly treated wood was discarded. For fixation of the active compound, the treated blocks were kept in a closed container for two weeks. The container was opened and the wood was dried for two more weeks. The test blocks were sterilized by gamma-irradiation (1.2 Mrad). Each treated block was placed on a mesh in an inoculated Petri dishes of malt agar, with an untreated (control) block. All the blocks were exposed to fungal attack for eight weeks at 22° C. and 70% relative humidity. At the end of the incubation period, the blocks were freed from adhering mycelium, oven dried at 104° C., allowed to cool, and weighed. The percentage weight loss of each block was calculated. Invalid results, due to waterlogging or insufficient moisture content, were not taken into account. The average weight loss of the treated blocks compared to the control blocks appears in Table 8.

The test system of a further assay is Coriolus versicolor. The assay is described as above. The conditions noted are these: eight weeks at 22° C. and 70% relative humidity. Here is the method:
as §1

Assay [1] concerns molds and blue-stain fungi. Put plainly: In vitro activity against molds and blue-stain fungi, poison plate assay (MIC). The assay is classed as cell-based. As to conditions: malt extract agar, complete inhibition. In a few lines: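 Poison plate format: compound diluted in sterile water and mixed into malt extract agar, then plates inoculated with each fungus. Growth inhibition scored at each concentration to give the MIC.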

Assay [2] has as its system blue-stain fungi and molds. In words: Activity against blue-stain fungi and molds on a stick test on vermiculite (paint film). Details: key to Surface score of wooden sticks treated with paint formulation, C. cladosporioides / Surface score of wooden sticks treated with paint formulation, P. purpurogenum / Surface score of wooden sticks treated with paint formulation, P. violacea / Surface score of wooden sticks treated with paint formulation, R rubra (y) / Surface score of wooden sticks treated with paint formulation, S. chartarum / Surface score of wooden sticks treated with paint formulation, A. versicolor / Surface score of wooden sticks treated with paint formulation, A. pullulans: 0: No growth; Trace of growth of up to 1% coverage of the test inoculated area; 2: Growth covering between 1 and 10% of the inoculated test area; Growth covering between 10 and 30% of the inoculated test area; 4: Growth covering between 30 and 70% of the inoculated test area; 5: Growth covering more than 70t of the inoculated test area. As to conditions: 12 weeks on vermiculite; for Surface score of wooden sticks treated with paint formulation, R rubra (y): R rubra (yeast). Here is the method: Beech sticks (73×18×2 mm) Fagus sylvatica were painted, allowed to dry, and sterilized by γ-radiation (1.2 mRad). […] The coated sticks prepared above were then dipped in a spore suspension of pure culture of each fungus. Seven sticks each were placed in autoclaved Petri dishes (200 mm in diameter, 30 mm in height) containing 300 ml of vermiculite and 120 ml of water, and incubated for 12 weeks. The surfaces of the sticks were then examined for the growth of fungus and were evaluated according to the following scoring system: 0: No growth 1: […] 2: […] 3: […] 4. […] 5. Growth covering more than 70t of the inoculated test area.

The subject of assay [3] is mixed spore suspension of blue-stain fungus and molds. Put plainly: Activity against blue-stain fungi and molds in a mold cabinet test (BS3900: Part G6). Details: key: 0: No growth; Trace of growth of up to 1% coverage of the test inoculated area; 2: Growth covering between 1 and 10% of the inoculated test area; Growth covering between 10 and 30% of the inoculated test area; 4: Growth covering between 30 and 70% of the inoculated test area; 5: Growth covering more than 70t of the inoculated test area. The procedure: Using the methods described in BS3900: Part G6: 1989, British Standard Methods of test for paints, “Assessment of resistance to fungal growth”, representative compounds of this invention were tested for activity against blue-stain fungus and molds in a mold cabinet test. In brief, sticks of Scots pine (Pinus sylvestris) measuring 75×100×10 mm, were painted, allowed to dry, and sterilized by […] (1.2 mRad). […] The sticks were then with each solution. The inoculation consisted of dipping the sticks in a mixed spore suspension, then placing them in a mold chamber and incubating them for 12 weeks. The surfaces were evaluated according the following score system: 0: No growth 1: […] 2: […] 3: […] 4. […] 5. Growth covering more than 70% of the inoculated test area.

Another assay relates to Debaryomyces hansenii. In words: Wood preservative efficacy against bacteria and yeasts, tryptose agar plates. The assay is classed as cell-based. Details: key: 0 = growth equal to control, 1 = inhibition, 2 = no growth. Here is the method:
Compositions were prepared by dissolving the compounds shown in Table 1 in 50% ethanol and further diluting with sterile distilled water. […] After cooling, the medium was inoculated with the bacteria listed below. After sufficient growth of the untreated cultures, the compounds were evaluated using the following rating system: 0=growth equal to control 1=inhibition of growth by the compound 2=no growth under the influence of the compound. In this Table, the higher numbers are the most preferred species. Debaryomyces hansenii (yeast)

[4] abbreviates: higher treatment level, uptake 1271-1534 g.a.i./m3, control blocks lost 20-37%.
Setting [5] is: lower treatment level, uptake 526-582 g.a.i./m3, control blocks lost 17-42%.
Setting [6] is: higher treatment level, uptake 1136-1222 g.a.i./m3, control blocks lost 26-44%.
Setting [7] is: lower treatment level, uptake 450-496 g.a.i./m3, control blocks lost 29-38%.

SMILES strings stand for the structures. Read-outs that look alike come from different tables or passages of the source.

The values that follow come from patent US6372297B1, “Wood preservative oxathiazines” (Uniroyal Chemical Company, Inc., priority 1993, dated 2002).

The MIC is the smallest concentration in the dilution series that meets the test's criterion for growth inhibition. As to `C[S+]1CCON=C1c1cc(Cl)cc(Cl)c1` (centres unmarked) [Compound 19], in the assay with Coniophora puteana (setting [4]), the “% weight loss, treated blocks (Coniophora)” value (“% weight loss … (Coniophora)” below) is on record as −0.3%. The “% weight loss … (Coniophora)” value in the assay with Coniophora puteana (setting [5]) stood at 0.9%. Further, the “% weight loss, treated blocks (Coriolus)” value with Coriolus versicolor (setting [6]) worked out at 87%. The “% weight loss, treated blocks (Coriolus)” value in the assay on Coriolus versicolor (setting [7]) came to 35%. Also, in assay [1], the “MIC (ppm) against A. amstelodami” value turned out to be 25 ppm, the “MIC (ppm) against A. versicolor” value was found to be 25 ppm, the “MIC (ppm) against C. pilifera” value was determined as 10 ppm and the “MIC (ppm) against F. solani” value was >25 ppm. Besides, in assay [1], the “MIC (ppm) against P. purpurogenum” value is 25 ppm, the “MIC (ppm) against P. variotii” value came out at 25 ppm, the “MIC (ppm) against P. violacea” value is >25 ppm and the “MIC (ppm) against S. atra” value is on record as 25 ppm. For the same molecule, in assay [1], the “MIC (ppm) against S. entoxylina” value amounted to 25 ppm and the “MIC (ppm) against U. atrum” value is recorded as >25 ppm. The MIC in assay [1] (Aspergillus niger, A. niger, read-out: MIC (ppm) against A. niger) is 2.5 µg/mL. In addition, the MIC in assay [1] (Aureobasidium pullulans, A. pullulans, read-out: MIC (ppm) against A. pullulans) was 25 µg/mL. The MIC in assay [1] (Cladosporium cladosporioides, C. cladosporioides, read-out: MIC (ppm) against C. cladosporioides) is 25 µg/mL. Besides, the MIC in assay [1] (Geotrichum candidum, G. candidum, read-out: MIC (ppm) against G. candidum) was > 25 µg/mL. For the same molecule, the MIC in assay [1] (Trichoderma viride, T. viride, read-out: MIC (ppm) against T. viride) worked out at 25 µg/mL.
In the case of `O=S1(=O)CCON=C1c1cccs1` [Compound 34], in assay [1], the “MIC (ppm) against A. amstelodami” value worked out at 5 ppm, the “MIC (ppm) against A. versicolor” value was 5 ppm, the “MIC (ppm) against C. pilifera” value amounted to 2.5 ppm and the “MIC (ppm) against F. solani” value worked out at 25 ppm. Moreover, in assay [1], the “MIC (ppm) against P. purpurogenum” value turned out to be 10 ppm, the “MIC (ppm) against P. variotii” value is 25 ppm, the “MIC (ppm) against P. violacea” value worked out at 25 ppm and the “MIC (ppm) against S. atra” value is given as 5 ppm. For the same molecule, in assay [1], the “MIC (ppm) against S. entoxylina” value was found to be 5 ppm and the “MIC (ppm) against U. atrum” value stood at 25 ppm. The “MIC (ppm) against A. niger” value in assay [1] (A. niger) was found to be 5 ppm. The “MIC (ppm) against A. pullulans” value in assay [1] (A. pullulans) was determined as 25 ppm. In addition, the “MIC (ppm) against C. cladosporioides” value in assay [1] (C. cladosporioides) was 25 ppm. The “MIC (ppm) against G. candidum” value in assay [1] (G. candidum) is 25 ppm. The “MIC (ppm) against T. viride” value in assay [1] (T. viride) is given as >25 ppm. Also, in assay [2] (0.15% a.i. in paint), the “Surface score of wooden sticks treated with paint formulation, A. pullulans” value was determined as 0; the “Surface score of wooden sticks treated with paint formulation, A. versicolor” value was found to be 0; the “Surface score of wooden sticks treated with paint formulation, C. cladosporioides” value stood at 0; the “Surface score of wooden sticks treated with paint formulation, P. purpurogenum” value is 4 (Growth covering between 30 and 70% of the inoculated test area). Further, in assay [2] (0.15% a.i. in paint), the “Surface score of wooden sticks treated with paint formulation, P. violacea” value was 4 (Growth covering between 30 and 70% of the inoculated test area); the “Surface score of wooden sticks treated with paint formulation, R rubra (y)” value is 3 (Growth covering between 10 and 30% of the inoculated test area); the “Surface score of wooden sticks treated with paint formulation, S. chartarum” value is recorded as 1 (Trace of growth of up to 1% coverage of the test inoculated area); the “Surface score of wooden sticks treated with paint formulation, U. atrum” value was 3 (Growth covering between 10 and 30% of the inoculated test area). For the same molecule, in assay [2] (0.3% a.i. in paint), the “Surface score of wooden sticks treated with paint formulation, A. pullulans” value was 0; the “Surface score of wooden sticks treated with paint formulation, A. versicolor” value is 0; the “Surface score of wooden sticks treated with paint formulation, C. cladosporioides” value came to 0; the “Surface score of wooden sticks treated with paint formulation, P. purpurogenum” value was 1 (Trace of growth of up to 1% coverage of the test inoculated area). Moreover, in assay [2] (0.3% a.i. in paint), the “Surface score of wooden sticks treated with paint formulation, P. violacea” value is 1 (Trace of growth of up to 1% coverage of the test inoculated area); the “Surface score of wooden sticks treated with paint formulation, R rubra (y)” value amounted to 0; the “Surface score of wooden sticks treated with paint formulation, S. chartarum” value is reported as 0; the “Surface score of wooden sticks treated with paint formulation, U. atrum” value is 1 (Trace of growth of up to 1% coverage of the test inoculated area). Besides, in assay [3] (0.15% in water-based paint), the “Surface score in a paint formulation in a mold cabinet test, 6 weeks” value stood at 0.5 and the “Surface score in a paint formulation in a mold cabinet test, 12 weeks” value was 1.5. For the same molecule, in assay [3] (0.3% in water-based paint), the “Surface score in a paint formulation in a mold cabinet test, 6 weeks” value is on record as 0 and the “Surface score in a paint formulation in a mold cabinet test, 12 weeks” value is 1.0.
On to `C[S+]1CCON=C1c1ccc(C(F)(F)F)cc1` (centres unmarked) [Compound 25], for which the entries for the “% weight loss … (Coniophora)” value with Coniophora puteana (setting [4]) and with Coniophora puteana (setting [5]) were −0.8% and −0.7%, respectively. Further, the “% weight loss, treated blocks (Coriolus)” value came to 21% with Coriolus versicolor (setting [6]) and 37% in the assay with Coriolus versicolor (setting [7]).
As for `CC(=O)c1ccc(C2=NOCC[S+]2[O-])cc1` (centres unmarked) [Compound 14], the results for the “Score of bactericidal activity, D. hansenii” value with Debaryomyces hansenii (10 ppm in tryptose agar) and with Debaryomyces hansenii (100 ppm in tryptose agar) were 0 and 2, respectively.
As to `C[S+]1CCON=C1c1ccc(Cl)cc1` (centres unmarked) [Compound 1], the “Score of bactericidal activity, D. hansenii” value in the assay with Debaryomyces hansenii (10 ppm in tryptose agar) and in the assay on Debaryomyces hansenii (100 ppm in tryptose agar) was 2 in each case.
